Test results taken from patent publication US20230265151A1, “GIP/GLP1 CO-AGONIST COMPOUNDS” (priority 2020, published 2023).
Like-named read-outs stand apart in the source and are kept apart here.

Columns and labels:
hGLP-1R = hGLP-1R (Homo sapiens, UniProt P43220); experiment: Functional cAMP formation (HTRF) in HEK-293 clonal cells expressing hGLP-1R, 0.1% bovine casein, without or with 1.0% human serum albumin; assay type: cell-based; design: expressed in transfected cells; conditions: 37° C.; for Emax: HEK293, cAMP, percent of maximal response to GLP-1(7-36)NH2, read-out: hGLP-1R Emax, % ± SEM; for EC50: cAMP, 0.1% bovine casein (no human serum albumin), geometric mean, read-out: hGLP-1R EC50, nM (SEM, n)
Method in brief: (§1)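 Cells were stimulated with peptide for 30 min at 37° C, then lysed in buffer carrying cAMP-d2 and anti-cAMP Eu3+-cryptate for a competitive HTRF read after at least 60 min at room temperature. The 665/620 nm ratio was converted to nM cAMP against a standard curve.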

[1] = target: T1, human GIP receptor (hGIPR) (Homo sapiens, UniProt P48546); experiment: [125I]-GIP binding, SPA with membranes of CHO cells expressing hGIPR; conditions: human GIPR; geometric mean (SEM, n); read-out: Binding Affinity Ki, nM (SEM, n) hGIPR
T1 construct: expressed in transfected cells; crude membranes
T1 sequence (P48546 22-466): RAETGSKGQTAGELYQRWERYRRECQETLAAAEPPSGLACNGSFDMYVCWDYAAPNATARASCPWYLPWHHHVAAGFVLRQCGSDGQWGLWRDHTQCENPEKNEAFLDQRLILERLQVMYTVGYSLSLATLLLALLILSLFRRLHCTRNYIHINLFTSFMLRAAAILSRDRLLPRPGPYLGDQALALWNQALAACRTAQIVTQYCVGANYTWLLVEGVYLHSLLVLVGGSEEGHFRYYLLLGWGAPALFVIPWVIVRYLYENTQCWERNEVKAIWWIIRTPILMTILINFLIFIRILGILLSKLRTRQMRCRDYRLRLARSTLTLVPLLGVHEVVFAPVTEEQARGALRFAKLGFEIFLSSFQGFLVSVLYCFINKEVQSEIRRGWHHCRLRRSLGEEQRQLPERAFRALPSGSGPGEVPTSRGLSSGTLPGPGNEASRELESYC

hGCGR = target: T2, hGCGR (Homo sapiens, UniProt P47871); experiment: Functional cAMP formation (HTRF) in HEK-293 clonal cells expressing hGCGR, 0.1% bovine casein, without or with 1.0% human serum albumin; assay type: cell-based; conditions: cAMP, 37° C., read-out: hGCGR EC50, nM (SEM, n)
T2 construct: expressed in transfected cells
Method in brief: as §1

[2] = target: T3, human GLP-1 receptor (hGLP-1R) (Homo sapiens, UniProt P43220); experiment: [125I]-GLP-1 binding, SPA with membranes of HEK293 cells expressing hGLP-1R; conditions: human GLP-1R; geometric mean (SEM, n); read-out: Binding Affinity Ki, nM (SEM, n) hGLP-1R
T3 construct: expressed in transfected cells; crude membranes

hGIPR = target: T4, hGIPR (Homo sapiens, UniProt P48546); experiment: Functional cAMP formation (HTRF) in HEK-293 clonal cells expressing hGIPR, 0.1% bovine casein, without or with 1.0% human serum albumin; assay type: cell-based; conditions: 37° C.; for Emax: HEK293, cAMP, percent of maximal response to GIP(1-42)NH2, read-out: hGIPR Emax, % ± SEM; for EC50: cAMP, read-out: hGIPR EC50, nM (SEM, n)
T4 construct: expressed in transfected cells
T4 sequence (P48546 22-466): T1 sequence (P48546 22-466)
Method in brief: as §1

[3] = 0.1% bovine casein, arithmetic mean
[4] = 0.1% bovine casein (no human serum albumin), geometric mean
[5] = 0.1% bovine casein and 1.0% human serum albumin, geometric mean (SEM, n)
[6] = 0.1% bovine casein and 1.0% human serum albumin

T3 sequence (P43220 24-463): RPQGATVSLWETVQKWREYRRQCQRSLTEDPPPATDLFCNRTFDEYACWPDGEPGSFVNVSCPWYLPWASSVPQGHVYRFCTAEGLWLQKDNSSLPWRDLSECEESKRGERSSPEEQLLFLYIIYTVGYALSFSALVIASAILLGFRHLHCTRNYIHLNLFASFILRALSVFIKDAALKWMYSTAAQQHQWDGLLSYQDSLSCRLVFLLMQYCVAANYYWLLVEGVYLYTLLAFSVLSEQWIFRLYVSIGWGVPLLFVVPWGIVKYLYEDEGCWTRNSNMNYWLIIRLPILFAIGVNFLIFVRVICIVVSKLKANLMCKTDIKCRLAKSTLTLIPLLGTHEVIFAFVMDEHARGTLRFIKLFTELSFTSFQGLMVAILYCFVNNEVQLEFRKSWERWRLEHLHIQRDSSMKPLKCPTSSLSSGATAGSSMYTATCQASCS
Chain of hGLP-1R (P43220 24-463): as above
T2 sequence (P47871 26-477): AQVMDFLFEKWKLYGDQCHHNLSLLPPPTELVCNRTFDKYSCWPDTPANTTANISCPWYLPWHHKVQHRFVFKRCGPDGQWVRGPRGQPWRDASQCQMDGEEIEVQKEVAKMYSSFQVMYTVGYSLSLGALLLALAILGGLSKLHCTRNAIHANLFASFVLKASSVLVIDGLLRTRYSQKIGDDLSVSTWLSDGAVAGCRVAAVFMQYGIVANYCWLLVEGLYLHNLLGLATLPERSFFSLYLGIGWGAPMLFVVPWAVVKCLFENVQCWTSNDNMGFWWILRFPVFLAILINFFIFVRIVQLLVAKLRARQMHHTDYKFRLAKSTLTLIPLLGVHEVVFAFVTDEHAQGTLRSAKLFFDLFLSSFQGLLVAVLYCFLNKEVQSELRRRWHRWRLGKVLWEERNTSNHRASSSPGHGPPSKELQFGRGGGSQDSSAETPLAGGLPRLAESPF

SMILES | Emax (hGLP-1R; [3]) [%] | EC50 (hGLP-1R) [nM] | Ki [1] [nM] | EC50 (hGCGR; [4]) [nM] | EC50 (hGCGR; [5]) [nM] | Ki [2] [nM] | Emax (hGIPR; [6]) [%] | EC50 (hGIPR; [4]) [nM] | EC50 (hGIPR; [5]) [nM] | Emax (hGIPR; [3]) [%] | Emax (hGLP-1R; [6]) [%]
CC[C@H](C)[C@H](NC(=O)[C@H](CC(C)C)NC(=O)[C@](C)(Cc1ccc(O)cc1)NC(=O)[C@H](CCCCNC(=O)COCCOCCNC(=O)CC[C@H](NC(=O)COCCOCCNC(=O)CC[C@H](NC(=O)CCCCCCCCCCCCC(=O)O)C(=O)O)C(=O)O)NC(=O)[C@@H](NC(=O)[C@H](Cc1ccccc1)NC(=O)[C@H](CCCN)NC(=O)C(C)(C)NC(=O)[C@H](CCC(N)=O)NC(=O)[C@H](C)NC(=O)[C@H](CCC(N)=O)NC(=O)[C@H](CCCN)NC(=O)[C@H](CC(=O)O)NC(=O)[C@H](CC(C)C)NC(=O)[C@](C)(CC(C)C)NC(=O)[C@@H](NC(=O)C(C)(C)NC(=O)[C@H](Cc1ccncc1)NC(=O)[C@H](CC(=O)O)NC(=O)[C@H](CO)NC(=O)[C@@H](NC(=O)[C@](C)(Cc1ccccc1F)NC(=O)[C@@H](NC(=O)CNC(=O)[C@H](CCC(=O)O)NC(=O)C(C)(C)NC(=O)[C@@H](N)Cc1ccc(O)cc1)[C@@H](C)O)[C@@H](C)O)[C@@H](C)CC)[C@@H](C)CC)C(=O)N[C@@H](CCCCNC(=O)COCCOCCNC(=O)CC[C@H](NC(=O)COCCOCCNC(=O)CC[C@H](NC(=O)CCCCCCCCCCCCC(=O)O)C(=O)O)C(=O)O)C(=O)NCC(=O)NCC(=O)N1CCC[C@H]1C(=O)N[C@@H](CO)C(=O)N[C@@H](CO)C(=O)NCC(=O)N[C@@H](C)C(=O)N1CCC[C@H]1C(=O)N1CCC[C@H]1C(=O)N1CCC[C@H]1C(=O)N[C@@H](CO)C(N)=O [Example 484] | 118 | 0.17 | 0.0296 | > 9950 | > 9950 | 0.268 | 91.3 | 0.0136 | 0.453 | – | –
CC[C@H](C)[C@H](NC(=O)[C@H](CC(C)C)NC(=O)[C@](C)(Cc1ccc(O)cc1)NC(=O)[C@H](CCCCNC(=O)COCCOCCNC(=O)CC[C@H](NC(=O)CC[C@H](NC(=O)CC[C@H](NC(=O)CCCCCCCCCCCCC(=O)O)C(=O)O)C(=O)O)C(=O)O)NC(=O)[C@@H](NC(=O)[C@H](Cc1ccccc1)NC(=O)[C@H](CCCN)NC(=O)C(C)(C)NC(=O)[C@H](CCC(N)=O)NC(=O)[C@H](C)NC(=O)[C@H](CCC(N)=O)NC(=O)[C@H](CCCN)NC(=O)[C@H](CC(=O)O)NC(=O)[C@H](CC(C)C)NC(=O)[C@](C)(CC(C)C)NC(=O)[C@@H](NC(=O)C(C)(C)NC(=O)[C@H](Cc1ccncc1)NC(=O)[C@H](CC(=O)O)NC(=O)[C@H](CO)NC(=O)[C@@H](NC(=O)[C@](C)(Cc1ccccc1F)NC(=O)[C@@H](NC(=O)CNC(=O)[C@H](CCC(=O)O)NC(=O)C(C)(C)NC(=O)[C@@H](N)Cc1ccc(O)cc1)[C@@H](C)O)[C@@H](C)O)[C@@H](C)CC)[C@@H](C)CC)C(=O)N[C@@H](CCCCNC(=O)COCCOCCNC(=O)CC[C@H](NC(=O)CC[C@H](NC(=O)CC[C@H](NC(=O)CCCCCCCCCCCCC(=O)O)C(=O)O)C(=O)O)C(=O)O)C(=O)NCC(=O)NCC(=O)N1CCC[C@H]1C(=O)N[C@@H](CO)C(=O)N[C@@H](CO)C(=O)NCC(=O)N[C@@H](C)C(=O)N1CCC[C@H]1C(=O)N1CCC[C@H]1C(=O)N1CCC[C@H]1C(=O)N[C@@H](CO)C(N)=O [Example 486] | – | 0.166 | 0.046 | > 9950 | > 9950 | 0.299 | 88.2 | 0.0143 | – | 94.1 | –
CC[C@H](C)[C@H](NC(=O)[C@H](CC(C)C)NC(=O)[C@](C)(Cc1ccc(O)cc1)NC(=O)[C@H](CCCCNC(=O)COCCOCCNC(=O)COCCOCCNC(=O)CC[C@H](NC(=O)CCCCCCCCCCCCC(=O)O)C(=O)O)NC(=O)[C@@H](NC(=O)[C@H](Cc1ccccc1)NC(=O)[C@H](CCCN)NC(=O)C(C)(C)NC(=O)[C@H](CCC(N)=O)NC(=O)[C@H](C)NC(=O)[C@H](CCC(N)=O)NC(=O)[C@H](CCCN)NC(=O)[C@H](CC(=O)O)NC(=O)[C@H](CC(C)C)NC(=O)[C@](C)(CC(C)C)NC(=O)[C@@H](NC(=O)[C@H](CO)NC(=O)[C@H](CCc1ccc(O)cc1)NC(=O)[C@H](CC(=O)O)NC(=O)[C@H](CO)NC(=O)[C@@H](NC(=O)[C@](C)(Cc1ccccc1F)NC(=O)[C@@H](NC(=O)CNC(=O)[C@H](CCC(=O)O)NC(=O)C(C)(C)NC(=O)[C@@H](N)Cc1ccc(O)cc1)[C@@H](C)O)[C@@H](C)O)[C@@H](C)CC)[C@@H](C)CC)C(=O)N[C@@H](CCCCNC(=O)COCCOCCNC(=O)COCCOCCNC(=O)CC[C@H](NC(=O)CCCCCCCCCCCCC(=O)O)C(=O)O)C(=O)NCC(=O)NCC(=O)N1CCC[C@H]1C(=O)N[C@@H](CO)C(=O)N[C@@H](CO)C(=O)NCC(=O)N[C@@H](C)C(=O)N1CCC[C@H]1C(=O)N1CCC[C@H]1C(=O)N1CCC[C@H]1C(=O)N[C@@H](CO)C(N)=O [Example 491] | 119 | 0.148 | 0.0301 | > 9950 | > 9950 | 0.182 | 87.5 | 0.0148 | – | 100 | 105
